# Measured values taken from patent US20180273897A1, “MODIFIED T-CELLS HAVING ANTI-FUGETACTIC PROPERTIES AND USES THEREOF” (THE GENERAL HOSPITAL CORPORATION, priority 2015, published 2018).
# Tested on: human CD3+ T cells
# Details: T cells pre-incubated with 0.01 μM to 10 mM AMD3100; harvested after 3 h; anti-fugetactic at lower, fugetactic at higher concentrations
# Description: For quantitative transmigration assays, purified human CD3^+ T cells (approximately 2×10^4 cells) are added to the upper chamber of a Transwell® insert in each well, to a total volume of 150 μl of Iscove's modified medium. […] To determine the anti-fugetactic concentration of AMD3100, the T cells are incubated with 0.01 μM to 10 mM AMD3100 prior to addition to the chamber. Cells are harvested from the lower chamber after 3 h, and cell counts are performed using a hemocytometer.
compound,measurement,value
"c1cc(CN2CCCNCCNCCCNCC2)ccc1CN1CCCNCCNCCCNCC1 [AMD3100, 1,1′[1,4-phenylenebis(methylene)]bis [1,4,8,11-tetraazacyclotetradecane]]",Effect on T cell migration away from tumor cells (anti-fugetactic versus fugetactic),bimodal effect
